Molecular target: IvoA (Aspergillus nidulans, UniProt C8V7P4)
Assay: chiral HPLC of D-tryptophan formation, steady-state kinetics
Assay type: biochemical
Details: substrate inhibition; ATP-dependent stereoinversion, apparent constant

Sequence of IvoA (C8V7P4 whole entry): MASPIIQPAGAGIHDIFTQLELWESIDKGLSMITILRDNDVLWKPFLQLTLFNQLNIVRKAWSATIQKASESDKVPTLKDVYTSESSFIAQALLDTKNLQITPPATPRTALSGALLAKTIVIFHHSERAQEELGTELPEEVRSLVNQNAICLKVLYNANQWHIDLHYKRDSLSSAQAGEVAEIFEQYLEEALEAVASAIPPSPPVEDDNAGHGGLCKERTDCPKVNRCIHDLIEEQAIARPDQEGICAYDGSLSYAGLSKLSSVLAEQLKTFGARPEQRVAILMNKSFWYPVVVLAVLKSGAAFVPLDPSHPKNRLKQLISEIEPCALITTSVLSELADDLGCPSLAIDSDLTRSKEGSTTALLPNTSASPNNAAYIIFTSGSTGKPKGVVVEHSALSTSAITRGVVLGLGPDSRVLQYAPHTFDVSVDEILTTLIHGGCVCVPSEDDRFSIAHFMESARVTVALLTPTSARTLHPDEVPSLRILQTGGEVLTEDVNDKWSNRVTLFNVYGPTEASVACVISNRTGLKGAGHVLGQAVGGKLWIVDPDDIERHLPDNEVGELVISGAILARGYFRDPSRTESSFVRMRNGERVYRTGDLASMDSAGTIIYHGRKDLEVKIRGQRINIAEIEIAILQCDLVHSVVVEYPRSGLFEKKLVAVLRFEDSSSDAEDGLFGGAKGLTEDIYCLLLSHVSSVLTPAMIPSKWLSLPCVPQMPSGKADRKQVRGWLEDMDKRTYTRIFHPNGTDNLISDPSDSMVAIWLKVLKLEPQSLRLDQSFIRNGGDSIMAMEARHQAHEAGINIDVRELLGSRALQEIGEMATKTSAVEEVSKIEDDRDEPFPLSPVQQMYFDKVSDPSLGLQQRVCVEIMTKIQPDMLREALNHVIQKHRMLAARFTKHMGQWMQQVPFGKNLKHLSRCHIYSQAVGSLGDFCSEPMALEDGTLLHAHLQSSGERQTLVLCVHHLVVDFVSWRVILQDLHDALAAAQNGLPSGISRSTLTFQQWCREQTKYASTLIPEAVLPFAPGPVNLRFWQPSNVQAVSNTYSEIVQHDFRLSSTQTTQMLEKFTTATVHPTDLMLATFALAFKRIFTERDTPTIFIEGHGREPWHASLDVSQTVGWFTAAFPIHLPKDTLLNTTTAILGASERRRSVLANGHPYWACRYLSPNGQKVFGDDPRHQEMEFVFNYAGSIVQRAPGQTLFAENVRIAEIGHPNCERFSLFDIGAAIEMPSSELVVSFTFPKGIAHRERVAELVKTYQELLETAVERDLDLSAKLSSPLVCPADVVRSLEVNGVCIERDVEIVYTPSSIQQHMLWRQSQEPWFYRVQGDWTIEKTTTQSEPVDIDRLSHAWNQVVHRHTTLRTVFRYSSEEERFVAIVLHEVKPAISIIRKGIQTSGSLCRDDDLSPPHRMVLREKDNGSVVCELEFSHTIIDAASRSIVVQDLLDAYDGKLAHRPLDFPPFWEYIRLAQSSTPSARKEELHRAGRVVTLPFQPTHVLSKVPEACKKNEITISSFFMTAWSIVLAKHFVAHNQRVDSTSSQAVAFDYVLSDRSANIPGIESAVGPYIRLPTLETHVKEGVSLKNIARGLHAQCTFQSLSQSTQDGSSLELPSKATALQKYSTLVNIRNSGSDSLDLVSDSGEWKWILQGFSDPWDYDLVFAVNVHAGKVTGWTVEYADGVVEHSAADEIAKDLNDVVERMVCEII

- Ki app: 4 ± 1 mM
SMILES: N[C@@H](Cc1c[nH]c2ccccc12)C(=O)O [L-tryptophan]

— article PMC6927398 (Journal of the American Chemical Society, 2019)
